What was measured:
mice [1] = experiment: Pedestal test; format: in vivo; settings: Mus musculus, ip, intraperitoneal, stay on the pedestal for more than 1 minute, read-out: ED50, Pedestal test (P)
Experimental: (§1) Sedative effects of 8-chloro-1-(hydroxymethyl)-6-phenyl-4H-s-triazolo[4,3-a][1,4]benzodiazepine (A) are shown by the following tests in mice:
Pedestal test: The untreated mouse leaves the pedestal in less than a minute to climb back to the floor of the standard mouse box. Tranquilized mice will stay on the pedestal for more than 1 minute.

mice [2] = experiment: Chimney test; format: in vivo; settings: Mus musculus, ip, intraperitoneal, failure to back up and out of vertical glass cylinder within 30 seconds, read-out: ED50, Chimney test (Ch)
From the text: as §1
The test determines the ability of mice to back up and out of a vertical glass cylinder within 30 seconds. At the effective dosage, 50% of the mice failed doing it.

mice [3] = experiment: Nicotine antagonism test; format: in vivo; settings: Mus musculus, ip, intraperitoneal, nicotine salicylate 2 mg./kg. thirty minutes later
Experimental: as §1
Nicotine antagonism test: Mice in a group of 6 are injected with the test compound-8-chloro-1-(hydroxymethyl)-6phenyl-4H-s-triazolo[4,3-a][1,4]benzodiazepine. Thirty minutes later the mice including control (untreated) mice are injected with nicotine salicylate (2 mg./kg.). The control mice show overstimulation, i.e., (1) running convulsions followed by (2) tonic extensor fits; followed by (3) death. […] (ED50) was necessary.

[4] = LD50 (lethal dose) in mice; settings: mouse, in vivo
mice [5] = experiment: Dish test; format: in vivo; settings: Mus musculus, ip, intraperitoneal, remaining in the dish for more than 3 minutes, read-out: ED50, Dish test (D)
Experimental: as §1
Dish test: Mice in Petri dishes (10 cm. diameter, 5 cm. higher, partially embedded in wood shavings), climb out in a very short itme, when not treated. Mice remaining in the dish for more than 3 minutes indicates tranquilization. The ED50 equals the dose of test compound at which 50% of the mice remain in the dish. The ED50 (intraperitoneal administration) in this test was 2.0 mg./kg.

[6] = read-out: ED50, Nicotine antagonism (3) test (Ni): protection of 50% of the mice against death

`OCc1nnc2n1-c1ccc(Cl)cc1C(c1ccccc1)=NC2` [A, 8-chloro-1-(hydroxymethyl)-6-phenyl-4H-s-triazolo[4,3-a][1,4]benzodiazepine] gave an ED50 (mice [1]) of 1.56 mg/kg, an ED50 (mice [2]) of 0.63 mg/kg and an ED50 (mice [3]; read-out: ED50, Nicotine antagonism (2) test: dosage protecting 50% of the mice against tonic extensor fits) of 0.08 mg/kg. For the same compound, the ED50 (mice [3]; [6]) was 0.1 mg/kg, the LD50 [4] was > 100 mg/kg and the ED50 (mice [5]) was 2 mg/kg.

In the case of `CCOCc1nnc2n1-c1ccc(Cl)cc1C(c1ccccc1)=NC2` [B, 8-Chloro-1-(ethoxymethyl)-6-phenyl-4H-s-triazolo[4,3-a][1,4]benzodiazepine], the ED50 (mice [1]) is reported as 1.4 mg/kg, the ED50 (mice [2]) is reported as 1 mg/kg and the ED50 (mice [3]; [6]) is reported as 0.6 mg/kg. The LD50 [4] was > 100 mg/kg and the ED50 (mice [5]) was 1.6 mg/kg.

With `OCc1nnc2n1-c1ccc(Cl)cc1C(c1ccccc1Cl)=NC2` [C, 8-Chloro-1-(hydroxymethyl)-6-(o-chlorophenyl)-4H-s-triazolo[4,3-a][1,4]benzodiazepine] the ED50 (mice [1]) was 0.03 mg/kg, the ED50 (mice [2]) was 0.04 mg/kg and the ED50 (mice [3]; [6]) was 0.032 mg/kg. The LD50 [4] was > 100 mg/kg and the ED50 (mice [5]) was 0.03 mg/kg.

With `O=C(O)CCC(=O)OCc1nnc2n1-c1ccc(Cl)cc1C(c1ccccc1Cl)=NC2` [D, Hydrogensuccinate ester of 8-chloro-1-(hydroxymethyl)-6-(o-chlorophenyl)-4H-s-triazolo[4,3-a][1,4]benzodiazepine] the ED50 (mice [1]) was 0.2 mg/kg, the ED50 (mice [2]) was 0.125 mg/kg and the ED50 (mice [3]; [6]) was 0.09 mg/kg. For the same compound, the LD50 [4] was > 25 mg/kg and the ED50 (mice [5]) was 0.125 mg/kg.
